# Test system: K12877-001-R-J1-PDC complex spheroid viability
# Assay: Anticancer human tumor K12877-001-R-J1-PDC patient-derived lung adenocarcinoma cell line growth inhibition [RAS]
# Settings: for IC50: curve of first compound; for viability, T/C: stronger effect = lower value
# Procedure, shortened: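 Multi-cell-type spheroids: tumor cells plus HUVEC endothelial cells and mesenchymal stem cells. RAS-pathway inhibitors were combined with targeted agents, each dosed in half-log steps down from clinical Cmax, or from 10 microM when Cmax was unknown.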
# [1] = second compound 0.000949 µM, first compound 0.0316 µM
# [2] = second compound 0.000949 µM, first compound 0.1 µM
# [3] = second compound 0.000949 µM, first compound 0.316 µM
# [4] = second compound 0.000949 µM, first compound 1 µM
# [5] = second compound 0.000949 µM, first compound 3.16 µM
# [6] = second compound 0.000949 µM, first compound 10 µM
# [7] = second compound 0.003 µM, first compound 0.0316 µM
# [8] = second compound 0.003 µM, first compound 0.1 µM
# [9] = second compound 0.003 µM, first compound 0.316 µM
# [10] = second compound 0.003 µM, first compound 1 µM
# [11] = second compound 0.003 µM, first compound 3.16 µM
# [12] = second compound 0.003 µM, first compound 10 µM
# [13] = second compound 0.00949 µM, first compound 0.0316 µM
# [14] = second compound 0.00949 µM, first compound 0.1 µM
# [15] = second compound 0.00949 µM, first compound 0.316 µM
# [16] = second compound 0.00949 µM, first compound 1 µM
# [17] = second compound 0.00949 µM, first compound 3.16 µM
# [18] = second compound 0.00949 µM, first compound 10 µM
# [19] = second compound 0.03 µM, first compound 0.0316 µM
# [20] = second compound 0.03 µM, first compound 0.1 µM
# [21] = second compound 0.03 µM, first compound 0.316 µM
# [22] = second compound 0.03 µM, first compound 1 µM
# [23] = second compound 0.03 µM, first compound 3.16 µM
# [24] = second compound 0.03 µM, first compound 10 µM
# [25] = second compound 0.0949 µM, first compound 0.0316 µM
# [26] = second compound 0.0949 µM, first compound 0.1 µM
# [27] = second compound 0.0949 µM, first compound 0.316 µM
# [28] = second compound 0.0949 µM, first compound 1 µM
# [29] = second compound 0.0949 µM, first compound 3.16 µM
# [30] = second compound 0.0949 µM, first compound 10 µM
# [31] = second compound 0.3 µM, first compound 0.0316 µM
# [32] = second compound 0.3 µM, first compound 0.1 µM
# [33] = second compound 0.3 µM, first compound 0.316 µM
# [34] = second compound 0.3 µM, first compound 1 µM
# [35] = second compound 0.3 µM, first compound 3.16 µM
# [36] = second compound 0.3 µM, first compound 10 µM
# 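Note: spheroids exposed to agents for one week before readout.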
# 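Throughout, for viability, T/C: tumour cells co-cultured with HUVEC and mesenchymal stem cells in spheroids.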
smiles,measurement,setting,value
CC1(O)CCCC1n1c(=O)c(C(F)F)cc2cnc(NC3CCN(S(C)(=O)=O)CC3)nc21 (centres undefined) + CCn1c(-c2cccnc2C(C)OC)c2c3cc(ccc31)N1CCOC(CC(NC(=O)C(C(C)C)N(C)C(=O)C3(F)CCN(C(=O)C#CC(C)(C)N(C)C)CC3)C(=O)N3CCCC(N3)C(=O)OCC(C)(C)C2)C1,IC50,second compound 0.000949 µM,202 nM
same,IC50,second compound 0.003 µM,126 nM
same,IC50,second compound 0.00949 µM,134 nM
same,IC50,second compound 0.03 µM,107 nM
same,IC50,second compound 0.0949 µM,80.8 nM
same,IC50,second compound 0.3 µM,97.9 nM
same,"viability, T/C",[1],89.8%
same,"viability, T/C",[2],61.3%
same,"viability, T/C",[3],31.9%
same,"viability, T/C",[4],38.7%
same,"viability, T/C",[5],23.8%
same,"viability, T/C",[6],2.35%
same,"viability, T/C",[7],76%
same,"viability, T/C",[8],46.7%
same,"viability, T/C",[9],31.2%
same,"viability, T/C",[10],34.5%
same,"viability, T/C",[11],21.3%
same,"viability, T/C",[12],2.96%
same,"viability, T/C",[13],71.9%
same,"viability, T/C",[14],43.5%
same,"viability, T/C",[15],33.3%
same,"viability, T/C",[16],36.8%
same,"viability, T/C",[17],33.7%
same,"viability, T/C",[18],2.22%
same,"viability, T/C",[19],66.2%
same,"viability, T/C",[20],45.8%
same,"viability, T/C",[21],32.1%
same,"viability, T/C",[22],34.5%
same,"viability, T/C",[23],27.8%
same,"viability, T/C",[24],2.85%
same,"viability, T/C",[25],55.7%
same,"viability, T/C",[26],56.5%
same,"viability, T/C",[27],27.5%
same,"viability, T/C",[28],27.9%
same,"viability, T/C",[29],33.9%
same,"viability, T/C",[30],2.46%
same,"viability, T/C",[31],68.5%
same,"viability, T/C",[32],51.2%
same,"viability, T/C",[33],27.1%
same,"viability, T/C",[34],25.7%
same,"viability, T/C",[35],20.3%
same,"viability, T/C",[36],2.35%
CCC(CC)c1cc(NC2CCC(N)C2)n2nccc2n1 (centres undefined) + CCn1c(-c2cccnc2C(C)OC)c2c3cc(ccc31)N1CCOC(CC(NC(=O)C(C(C)C)N(C)C(=O)C3(F)CCN(C(=O)C#CC(C)(C)N(C)C)CC3)C(=O)N3CCCC(N3)C(=O)OCC(C)(C)C2)C1,IC50,second compound 0.000949 µM,1300 nM
same,IC50,second compound 0.003 µM,1020 nM
same,IC50,second compound 0.00949 µM,877 nM
same,IC50,second compound 0.03 µM,903 nM
same,IC50,second compound 0.0949 µM,808 nM
same,IC50,second compound 0.3 µM,508 nM
same,"viability, T/C",[1],78.9%
same,"viability, T/C",[2],83.2%
same,"viability, T/C",[3],80.2%
same,"viability, T/C",[4],64.3%
same,"viability, T/C",[5],1.95%
same,"viability, T/C",[6],0.98%
same,"viability, T/C",[7],72%
same,"viability, T/C",[8],85.8%
same,"viability, T/C",[9],72.8%
same,"viability, T/C",[10],51%
same,"viability, T/C",[11],1.27%
same,"viability, T/C",[12],1.35%
same,"viability, T/C",[13],85.2%
same,"viability, T/C",[14],70.9%
same,"viability, T/C",[15],69.5%
same,"viability, T/C",[16],48%
same,"viability, T/C",[17],1.95%
same,"viability, T/C",[18],0.75%
same,"viability, T/C",[19],74%
same,"viability, T/C",[20],70.5%
same,"viability, T/C",[21],69.2%
same,"viability, T/C",[22],48%
same,"viability, T/C",[23],1.63%
same,"viability, T/C",[24],1.21%
same,"viability, T/C",[25],83.6%
same,"viability, T/C",[26],70.2%
same,"viability, T/C",[27],75%
same,"viability, T/C",[28],44.2%
same,"viability, T/C",[29],1.61%
same,"viability, T/C",[30],1.11%
same,"viability, T/C",[31],76.8%
same,"viability, T/C",[32],69.9%
same,"viability, T/C",[33],61.7%
same,"viability, T/C",[34],33.5%
same,"viability, T/C",[35],1.98%
same,"viability, T/C",[36],0.91%
